Assay [1] relates to NNK-induced lung tumorigenesis (pulmonary adenomas). Nature of the assay: NNK-induced lung tumorigenesis. Type of assay: in vivo, mice. Particulars: 20 mg/kg daily by injection; 10 μmol NNK i.p.; sixteen weeks. As for the experimental part:
The capacity of tobacco-specific nitrosamine 4-(methylnitrosamino)-1-(3-pyridyl)-1-butanone (NNK) to induce tumor incidence was recognized.
Every group had 20 mice. For treatment group, each mouse was gave free CUR and PK-CUR-NP by injection at dose of 20 mg/kg daily. For control group, each mouse was gave same volume of physiological saline. Three days later, mice were gave 10 μmol NNK (in 0.1 ml saline) by i.p. injection. Sixteen weeks after these treatments the mice were killed and pulmonary adenomas were counted. The statistical significance of bioassay data was determined by student's test.
Every group had 20 mice. For treatment group, each mouse was gave ELE and PK-ELE-NP by injection at dose of 20 mg/kg daily. For control group, each mouse was gave same volume of physiological saline. Three days later, mice were gave 10 μmol NNK (in 0.1 ml saline) by i.p. injection. Sixteen weeks after these treatments the mice were killed and pulmonary adenomas were counted. The statistical significance of bioassay data was determined by student's test.
Every group had 20 mice. For treatment group, each mouse was gave free CPT and PK-CPT-NP by injection at dose of 20 mg/kg daily. For control group, each mouse was gave same volume of physiological saline. Three days later, mice were gave 10 μmol NNK (in 0.1 ml saline) by i.p. injection. Sixteen weeks after these treatments the mice were killed and pulmonary adenomas were counted. The statistical significance of bioassay data was determined by student's test.

Assay [2] concerns HL-60. Nature of the assay: Inhibition of tumor cell proliferation, HL-60. In kind it is cell-based, human. Particulars: for Inhibition (%): 72 hours. As for the experimental part: Human leukemia cells (HL-60) were grown in RPMI Medium 1640 supplemented with 10% (v/v) heat-inactivated FBS (56° C. for 30 min) at 37° C. in a humidified 95% air/5% CO2 atmosphere. Cells were seeded at a level of 2×10^5 cells/ml. Cells were allowed to attain a maximum density of 1.2×10^6 cells/ml before being passed by dilution into fresh medium to a concentration of 2×10^5 cells/ml.
Cell lines were routinely cultured in the RPMI1640 medium supplemented 20% fetal calf serum. The experiment was carried out in 96 microplate, each well had 5×10^5 cells and given desired concentration of drug (1 μg/ml). Then the plate was incubated at 37° C. in an atmosphere of humidified air enriched with 5 percent carbon dioxide for 72 hours. Inhibition percent rate of tumor cell proliferation was obtained according to the bellow formula. [formula]
(§1) Human tumor cell lines: Hela leukemia HL-60, malignant melanocarcinoma B16, oral epidermoid carcinoma (KB), lung carcinoma (A549), breast carcinoma MCF-7, adenocarcinoma of stomach.
(§2) Animal tumor cell lines: Walker carcinoma, LLC-WRC-256, malignant melanoma (RMMI 1846), 3T3, and S-180 sarcoma (CCRF-180). All lines were routinely cultured in the RPMI1640 medium supplemented 20% fetal calf serum. The experiment was carried out in 96 microplate, each well had 5×10^5 cells and given desired concentration of 1 μg/ml (1×10^−6 g/ml) drug. Then the plate was incubated at 37° C. in an atmosphere of humidified air enriched with 5 percent carbon dioxide for 72 hours.
Inhibition percent rate of tumor cell proliferation was obtained according to the bellow formula. [formula] […]

Assay [3] relates to oral epidermoid carcinoma (KB). Nature of the assay: Inhibition of tumor cell proliferation, KB. Type of assay: cell-based, human. Particulars: 72 hours; for Inhibition (%): 50 ng/ml. As for the experimental part:
as §1, §2
Inhibition percent rate of tumor cell proliferation was obtained according to the bellow formula. [formula]
Animal tumor cell lines: Walker carcinoma, LLC-WRC-256, malignant melanoma (RMMI 1846), 3T3, and S-180 sarcoma (CCRF-180). All lines were routinely cultured in the RPMI1640 medium supplemented 20% fetal calf serum. The experiment was carried out in 96 microplate, each well had 5×10^5 cells and given desired concentration of 1 μg/ml (1×10^−6 g/ml) drug. Then the plate was incubated at 37° C. in an atmosphere of humidified air enriched with 5 percent carbon dioxide for 72 hours. Concentration of CUR or PK-CUR-NP is 50ng/ml.
Animal tumor cell lines: Walker carcinoma, LLC-WRC-256, malignant melanoma (RMMI 1846), 3T3, and S-180 sarcoma (CCRF-180). All lines were routinely cultured in the RPMI1640 medium supplemented 20% fetal calf serum. The experiment was carried out in 96 microplate, each well had 5×10^5 cells and given desired concentration of 1 μg/ml (1×10^−6 g/ml) drug. Then the plate was incubated at 37° C. in an atmosphere of humidified air enriched with 5 percent carbon dioxide for 72 hours. Concentration of ELE or PK-ELE-NP is 50 ng/ml.
Animal tumor cell lines: Walker carcinoma, LLC-WRC-256, malignant melanoma (RMMI 1846), 3T3, and S-180 sarcoma (CCRF-180). All lines were routinely cultured in the RPMI1640 medium supplemented 20% fetal calf serum. […]

As for `CC[C@@]1(O)C(=O)OCc2c1cc1n(c2=O)Cc2cc3ccccc3nc2-1` [CPT, Camptothecin], the “Tumor incidence (%)” value in assay [1] stood at 36.2 ± 6.2%. Further, the inhibition at 0.05 µg/mL in assay [2] (Homo sapiens, HL-60, 72 h, 50 ng/ml) stood at 70.8 ± 11.2%.

`C=C1C[C@@]2(O)O[C@@]3(C[C@H]2C(C)C)[C@@H](C)CC[C@@H]13` [CUR, Curcumol]: the “Tumor incidence (%)” value in assay [1] is on record as 35.8 ± 5.8%. The “Inhibition (%)” value is recorded as 76.8 ± 12.8% in assay [2] (50 ng/ml) and 60.8 ± 9.1% in assay [3].

Consider `COC(=O)C[C@](O)(CCCC(C)(C)O)C(=O)O[C@@H]1C(OC)=C[C@]23CCCN2CCc2cc4c(cc2[C@H]13)OCO4` [HHT, Homoharringtonine], for which the inhibition at 1 µg/mL in assay [2] (Homo sapiens, HL-60, 72 h, 1 μg/ml) stood at 70.8 ± 9%; in assay [2] (Homo sapiens, HL-60, 72 h, Example 23, 1 μg/ml, NP dose equivalent of free HHT), 70.5 ± 8%; in assay [3] (Homo sapiens, 1 μg/ml), 80 ± 8.5%.

Eelemene: the “Tumor incidence (%)” value in assay [1] came to 34.8 ± 6.2%. Further, the “Inhibition (%)” value is 78.9 ± 12.5% in assay [2] (50 ng/ml) and 60.2 ± 13.2% in assay [3].
